This note sets out measurements from patent publication US20210330611A1, “THERAPY FOR NEUROLOGICAL DISEASES/DISORDERS” (priority 2020, published 2021).

“And” between values parts separate entries of the source, which are not always exact repeats. Identical values can stand only once. Counter-ions that a name gives are not always drawn. Like-named read-outs stand apart in the source and are kept apart here.

Data set [1] is described as follows: in vitro. Conditions: rat, Cell Toxicity IC50 (uM) [cFib assay].
Data set [2] concerns LPS-induced microglia activation. The experiment in a line: Image-based assay of LPS-induced microglia activation (HTS and dose response). The data set is classed as cell-based, rat. Conditions: Rattus norvegicus, Microglia; for inhibition at 10 µM: primary microglia HTS, LPS stimulation, increased cell size (>800 μm^2) as marker of activation, read-out: LPS % inhibition.
Data set [3] can be described thus: in vitro. The conditions noted are these: rat.
Data set [4] relates to fibrin-induced microglia activation. Kind of data set: Image-based assay of fibrin-induced microglia activation (HTS and dose response). Type of data set: cell-based, rat. The conditions noted are these: for IC50 / inhibition at 10 µM: Rattus norvegicus, Microglia; for inhibition at 10 µM: primary microglia HTS, fibrin stimulation, increased cell size (>800 μm^2) as marker of activation, read-out: Fibrin % inhibition.

For data set [5], the system named is fibrin- and LPS-induced microglia activation. The experiment in a line: cells. The data set is classed as cell-based, rat. Conditions: for inhibition at 10 µM: Rattus norvegicus.
Data set [6] deals with primary rat microglia. The experiment in a line: Cell toxicity (dead cells, size <150 μm2) in coated fibrin (cFib) assay.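 On Fibrin % cell toxicity: share of dead cells sized under 150 µm2 at 10 µM in fibrin-stimulated microglia HTS.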 The conditions noted are these: primary microglia HTS, fibrin stimulation; decreased size (<150 μm^2) as marker of toxicity.
Data set [7] concerns primary rat microglia. The experiment in a line: Cell toxicity (dead cells, size <150 μm2) in LPS assay. Conditions: for LPS % cell toxicity: primary microglia HTS, LPS stimulation, decreased size (<150 μm^2) as marker of toxicity; for IC50: read-out: Cell Toxicity IC50 (uM) [LPS assay], LPS assay.
[8] abbreviates: 48 h, Table 1, dose response 0.001-20 μM, triplicates, primary rat microglia, 48 h, read-out: LPS IC50.
Where [9] appears, read: LPS-induced microglia activation, dose response, read-out: LPS IC50 (uM) (Suppl. Table 7).
[10] abbreviates: dose response, LPS-induced microglia activation, read-out: LPS IC50.
The mark [11] stands for this setting: 48 h, Table 1, dose response 0.001-20 μM, triplicates, primary rat microglia, 48 h, read-out: Fibrin IC50.
Setting [12] is: dose response, fibrin-induced microglia activation, read-out: Fibrin IC50.
The mark [13] stands for this setting: fibrin-induced microglia activation, dose response, read-out: Fibrin IC50 (uM) (Suppl. Table 7).
[14] abbreviates: HTS of 1907 compounds, quadrant by fibrin and LPS inhibition.
[15] abbreviates: Microglia, HTS hit classification, read-out: Hit.
The mark [16] stands for this setting: hit classification in microglia HTS, read-out: Cherry-picked Hit (Suppl. Table 7).
Where [17] appears, read: quadrant by fibrin and LPS inhibition in HTS of 1907 compounds.
The mark [18] stands for this setting: Table 3, read-out: LPS IC50 (uM) (Suppl. Table 7).
The mark [19] stands for this setting: Table 3, read-out: Fibrin IC50 (uM) (Suppl. Table 7).
Setting [20] is: Microglia, Table 3, read-out: Cherry-picked Hit (Suppl. Table 7).

As for `CCOC(=O)[N-]c1cn(N2CCOCC2)n[o+]1` [Molsidomine, reference compound], the IC50 in data set [1] (cFib assay), in data set [2] (setting [8]), in data set [2] (setting [9]), in data set [2] (setting [10]), in data set [3] and in data set [4] (setting [11]) was over 20 µM each time. Moreover, the IC50 in data set [4] (setting [12]) and in data set [4] (setting [13]) was over 20 µM in each case. Also, the inhibition at 10 µM was 124% in data set [2] (48 h), 103% in data set [4], over 50% in data set [5] (setting [15]) and over 50% in data set [5] (setting [16]). Besides, the “Quadrant (FIG. 5b)” value in data set [5] (setting [14]) was “Q2”; in data set [5] (Table 1, screen at 10 μM) it was “Q2”; in data set [5] (setting [17]), “Q2”. Besides, the “Fibrin % cell toxicity” value in data set [6] was determined as 2%. The “LPS % cell toxicity” value in data set [7] turned out to be 5%.
Take `COc1c(C)c2c(c(O)c1C/C=C(\C)CCC(=O)OCCN1CCOCC1)C(=O)OC2` [Mycophenolate mofetil, reference compound]: the IC50 in data set [1] (cFib assay) is over 20 µM; in data set [2] (setting [8]) it was 1 µM; in data set [2] (setting [9]), 1 µM; in data set [2] (setting [10]), 1 µM; in data set [3], over 20 µM; in data set [4] (setting [11]), 2 µM. The half-inhibitory concentration (IC50) in data set [4] (setting [12]) and in data set [4] (setting [13]) was 2 µM each time. Besides, the inhibition at 10 µM in data set [2] (48 h) was 79%; in data set [4], 94%; in data set [5] (setting [15]) it was over 50%; in data set [5] (setting [16]), over 50%. The “Quadrant (FIG. 5b)” value was “Q2” in data set [5] (setting [14]); “Q2” in data set [5] (Table 1, screen at 10 μM); “Q2” in data set [5] (setting [17]). Also, the “Fibrin % cell toxicity” value in data set [6] came to 2%. Besides, the “LPS % cell toxicity” value in data set [7] worked out at 2%.
As for `COc1c(C)c2c(c(O)c1C/C=C(\C)CCC(=O)O)C(=O)OC2` [Mycophenolic acid, reference compound], the IC50 was over 20 µM in data set [1] (cFib assay); 1 µM in data set [2] (setting [8]); 1 µM in data set [2] (setting [9]); 1 µM in data set [2] (setting [10]); over 20 µM in data set [3]; 1 µM in data set [4] (setting [11]). In addition, the IC50 in data set [4] (setting [12]) and in data set [4] (setting [13]) was 1 µM each time. The inhibition at 10 µM is 91% in data set [2] (48 h), 94% in data set [4], over 50% in data set [5] (setting [15]) and over 50% in data set [5] (setting [16]). In addition, the “Quadrant (FIG. 5b)” value in data set [5] (setting [14]) is “Q2”; in data set [5] (Table 1, screen at 10 μM), “Q2”; in data set [5] (Table 2, screen at 10 μM) it was “Q2”; in data set [5] (setting [17]) it was “Q2”. Further, in data set [5] (Table 7, fib = fibrin, LPS, tox = toxicity), the Activity entry is on record as “fib/LPS”. Further, the “Fibrin % cell toxicity” value in data set [6] is on record as 1%. Further, the “LPS % cell toxicity” value in data set [7] amounted to 2%.
On to `COc1ccccc1N1CCN(CC(O)COc2cccc3ccccc23)CC1` (stereo not drawn) [Naftopidil dihydrochloride, reference compound], for which the half-maximal inhibitory concentration (IC50) in data set [1] (Table 3), in data set [1] (cFib assay), in data set [2] (setting [8]), in data set [2] (setting [9]), in data set [2] (setting [18]) and in data set [2] (setting [10]) was over 20 µM throughout. Besides, the IC50 in data set [3] was over 20 µM; in data set [4] (setting [11]), 7 µM; in data set [4] (setting [19]), 7 µM; in data set [4] (setting [12]) it was 7 µM; in data set [4] (setting [13]), 7 µM; in data set [7], over 20 µM. Besides, the inhibition at 10 µM in data set [2] (48 h) is 32%; in data set [4], 59%; in data set [5] (setting [20]) it was over 50%; in data set [5] (setting [15]), over 50%. Further, the “Fibrin Selectivity” value in data set [4] turned out to be 3. Moreover, in data set [4], the “Fibrin Selectivity (LOG10)” value worked out at 0.45. For the same compound, the “Quadrant (FIG. 5b)” value was “Q3” in data set [5] (setting [14]); “Q3” in data set [5] (Table 1, screen at 10 μM); “Q3” in data set [5] (Table 3, screen at 10 μM); “Q3” in data set [5] (setting [17]). For the same compound, the “Fibrin % cell toxicity” value in data set [6] came to 1%. For the same compound, in data set [7], the “LPS % cell toxicity” value turned out to be 0%.
Take `CCOC(=O)O[C@]1(C(=O)COC(=O)CC)CC[C@H]2[C@@H]3CCC4=CC(=O)C=C[C@]4(C)[C@H]3[C@@H](O)C[C@@]21C` [Prednicarbate, reference compound]: the IC50 in data set [1] (Table 3) was over 20 µM; in data set [1] (cFib assay), over 20 µM; in data set [1] (cFib assay, Table 6), over 20 µM; in data set [2] (setting [8]), over 20 µM; in data set [2] (setting [9]) it was over 20 µM; in data set [2] (setting [18]), over 20 µM. Further, the 50% inhibitory concentration (IC50) in data set [2] (Table 6, read-out: LPS IC50 (uM) (Suppl. Table 7)) was over 20 µM; in data set [2] (setting [10]), over 20 µM; in data set [3] it was over 20 µM; in data set [4] (setting [11]) it was 0.002 µM; in data set [4] (setting [19]), 0.002 µM; in data set [4] (Table 6, read-out: Fibrin IC50 (uM) (Suppl. Table 7)), 0.002 µM. For the same compound, the half-inhibitory concentration (IC50) is 0.002 µM in data set [4] (setting [12]), 0.002 µM in data set [4] (setting [13]), over 20 µM in data set [7] and over 20 µM in data set [7] (Table 6). Further, the inhibition at 10 µM in data set [2] (48 h) is 73%; in data set [4] it was 61%; in data set [5] (setting [20]), over 50%; in data set [5] (setting [15]), over 50%. In addition, the “Fibrin Selectivity” value in data set [4] was found to be 8510. Moreover, the “Fibrin Selectivity (LOG10)” value in data set [4] was determined as 3.93. The “Quadrant (FIG. 5b)” value in data set [5] (setting [14]) is “Q2”; in data set [5] (Table 1, screen at 10 μM), “Q2”; in data set [5] (Table 3, screen at 10 μM) it was “Q2”; in data set [5] (microglia HTS, Table 6) it was “Q2”; in data set [5] (setting [17]), “Q2”. Besides, the “Fibrin % cell toxicity” value in data set [6] was found to be 1%. Also, in data set [7], the “LPS % cell toxicity” value is 1%.
For the compound `C[C@]12C=CC(=O)C=C1CC[C@@H]1[C@@H]2C(=O)C[C@@]2(C)[C@H]1CC[C@]2(O)C(=O)CO` [Prednisone, reference compound], the IC50 in data set [1] (Table 3), in data set [1] (cFib assay), in data set [2] (setting [8]), in data set [2] (setting [9]), in data set [2] (setting [18]) and in data set [2] (setting [10]) was over 20 µM throughout. Further, the IC50 in data set [3] and in data set [7] was over 20 µM throughout. In addition, the inhibition at 10 µM in data set [2] (48 h) is 45%; in data set [4], 66%; in data set [5] (setting [20]), over 50%; in data set [5] (setting [15]) it was over 50%. In data set [4], the “Fibrin Selectivity” value was 6. Moreover, the “Quadrant (FIG. 5b)” value was “Q3” in data set [5] (setting [14]); “Q3” in data set [5] (Table 1, screen at 10 μM); “Q3” in data set [5] (Table 3, screen at 10 μM); “Q3” in data set [5] (setting [17]). Moreover, the “Fibrin % cell toxicity” value in data set [6] was 1% and 2%. Moreover, the “LPS % cell toxicity” value in data set [7] is 1% and 0%.
Take `CC(CCc1ccc(O)cc1)NCC(O)c1ccc(O)cc1` (stereo not drawn) [Ractopamine hydrochloride, reference compound]: the IC50 in data set [1] (cFib assay) is over 20 µM; in data set [2] (setting [8]), over 20 µM; in data set [2] (setting [9]), over 20 µM; in data set [2] (setting [10]), over 20 µM; in data set [3], over 20 µM; in data set [4] (setting [11]) it was 20 µM. Besides, the IC50 in data set [4] (setting [12]) and in data set [4] (setting [13]) was 20 µM each time. In addition, the inhibition at 10 µM was 39% in data set [2] (48 h), 50% in data set [4], over 50% in data set [5] (setting [15]) and over 50% in data set [5] (setting [16]). Further, the “Quadrant (FIG. 5b)” value in data set [5] (setting [14]) is “Q3”; in data set [5] (Table 1, screen at 10 μM), “Q3”; in data set [5] (setting [17]), “Q3”. Besides, in data set [6], the “Fibrin % cell toxicity” value stood at 1%. Besides, the “LPS % cell toxicity” value in data set [7] came out at 0%.
`O=P(O)(O)C(O)(Cc1cccnc1)P(=O)(O)O` [Risedronate sodium, reference compound]: the IC50 is over 20 µM in data set [1] (cFib assay); over 20 µM in data set [2] (setting [8]); over 20 µM in data set [2] (setting [9]); over 20 µM in data set [2] (setting [10]); over 20 µM in data set [3]; 19 µM in data set [4] (setting [11]). Besides, the IC50 in data set [4] (setting [12]) and in data set [4] (setting [13]) was 19 µM each time. The inhibition at 10 µM in data set [2] (48 h) is 16%; in data set [4], 81%; in data set [5] (setting [15]) it was over 50%; in data set [5] (setting [16]), over 50%. Besides, the “Quadrant (FIG. 5b)” value is given as “Q3” in data set [5] (setting [14]); “Q3” in data set [5] (Table 1, screen at 10 μM); “Q3” in data set [5] (setting [17]). In addition, the “Fibrin % cell toxicity” value in data set [6] is listed as 2%. The “LPS % cell toxicity” value in data set [7] amounted to 0%.

In general, IC50 refers to the concentration needed to halve the response being measured.
